Assays:
serum tryptase = experiment: Serum tryptase in ISM patients; format: in vivo, human; settings: 100 mg or 150 mg BID
Experimental: Also, blood samples were collected at the following timepoints: Cycle 1, Day 1: pre-dose (within 30 minutes prior to the morning dose), 0.5, 1.0, 2.0, 3.0, 4.0, and 6.0 hours (+15 minutes) post-morning dose. Cycle 1, Day 8: pre-dose (within 30 minutes prior to the morning dose) and 2 hours (+15 minutes) post-morning dose. Serum tryptase tests were conducted according to Example 14.
The measurement of serum tryptase can be followed to the procedure described in the literature (McMurray et al., Standardized indolent systemic mastocytosis evaluations across a health care system: implications for screening accuracy, Blood (2024) 144 (4): 408-419). Briefly, the procedure begins with proper patient preparation, avoiding recent physical activity or triggers that could cause mast cell activation. Venous blood samples, preferably drawn when the patient is not experiencing acute symptoms, are collected in serum separator tubes (SSTs) or plain red-top tubes, with approximately 5 mL of blood needed for analysis. After collection, the blood is allowed to clot at room temperature for 30-60 minutes before centrifugation for 10-15 minutes. The serum is then carefully separated from the cells and stored at 2-8° C. for short-term analysis or frozen at −20° C. or lower for long-term storage. […]

human mast cells = experiment: ISM-like mast cell chemotaxis towards conditioned media (Transwell); format: cell-based; settings: conditioned media from ISM-like mast cells treated two hours
Experimental: Human mast cells were differentiated from bone marrow CD34+ cells from four healthy donors as set forth in Example 4. Cells were used to produce conditioned media in ISM-like conditions. Conditioned media was the supernatant collected from mast cells cultured with stem cell factor (100 ng/ml), sensitized with NP-IgE (0.1 μg/mL) for 18 hours, treated with Compound 128 for two hours, and stimulated with NP-BSA (antigen; 0.1 μg/mL) for four hours. Migration of mast cells in the top chamber on Transwell […] inserts (Corning) towards the antigen-stimulated conditioned media in the bottom chamber was quantified after four hours using the CellTiter-Glo™ Luminescent Cell Viability Assay Kit (Promega). The amount of luminescence is correlated with live cell numbers. Fold change over the non-activated control was calculated.

mast cells = experiment: Return of degranulation after Compound 128 exposure and washout (FIG. 18); format: cell-based, human; settings: after Compound 128 exposure, flow cytometry
Source text: FIGS. 18A-D show return of degranulation after Compound 128 exposure.

BTK = BTK (Homo sapiens, UniProt Q06187); experiment: MRGPRX2-induced BTK phosphorylation in ISM-like mast cells; format: cell-based; parameters: Human mast cells were differentiated from bone marrow CD34+ cells from six healthy donors; endogenous in cells; host or cells: human mast cells differentiated from bone marrow CD34+ cells of healthy donors, cultured with SCF; settings: 0.1 μM, C48/80 stimulation
Chain of BTK (Q06187 whole entry): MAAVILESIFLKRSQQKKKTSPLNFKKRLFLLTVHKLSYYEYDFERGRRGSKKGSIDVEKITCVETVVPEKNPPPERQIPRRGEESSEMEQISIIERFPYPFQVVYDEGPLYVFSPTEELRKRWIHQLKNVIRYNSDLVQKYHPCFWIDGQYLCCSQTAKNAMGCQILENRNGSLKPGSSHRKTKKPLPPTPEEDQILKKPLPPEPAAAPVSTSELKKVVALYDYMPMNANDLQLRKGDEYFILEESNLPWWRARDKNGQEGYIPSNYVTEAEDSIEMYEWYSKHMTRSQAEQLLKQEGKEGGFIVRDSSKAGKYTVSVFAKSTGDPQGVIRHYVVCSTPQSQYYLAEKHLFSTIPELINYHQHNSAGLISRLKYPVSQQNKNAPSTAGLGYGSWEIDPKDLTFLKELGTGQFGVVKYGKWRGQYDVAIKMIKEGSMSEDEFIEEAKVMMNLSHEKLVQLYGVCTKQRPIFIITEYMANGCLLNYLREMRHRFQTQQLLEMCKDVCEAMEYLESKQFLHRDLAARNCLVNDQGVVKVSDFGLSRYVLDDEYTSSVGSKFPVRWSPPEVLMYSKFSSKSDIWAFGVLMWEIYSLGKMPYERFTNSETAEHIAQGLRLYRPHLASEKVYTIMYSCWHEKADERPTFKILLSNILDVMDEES
Experimental: Human mast cells were differentiated from bone marrow CD34+ cells from four healthy donors and were cultured in the presence of SCF (100 ng/mL) to mimic mast cells in ISM and treated with Compound 128 for two hours prior to stimulation. Mas-related G protein-coupled receptor (MRGPRX2) agonists, Compound 48/80 (C48/80; a product of N-methyl-p-methoxyphenethylamine with formaldehyde) or Substance P (SP) were used to activate the MRGPRX2 pathway. For pBTK test, cells were stimulated with C48/80 (10 μg/mL) for ten minutes at 37° C. and cells were stained. The median fluorescence intensity of phosphorylated BTK was measured. The fold change over unstimulated control for pBTK was calculated. For cytokine test, cells were stimulated with C48/80 (10 μg/mL) or SP (30 μM) for four hours at 37° C. Supernatant was collected and cytokine levels were measured using the BD Cytometric Bead Array (CBA) human soluble protein master buffer kit (Becton Dickinson) and BD CBA human soluble protein flex sets for IL-8, MCP-1, GM-CSF and IL-13 (Becton Dickinson). Cytokine levels were measured and normalized to percent of control, with 0% representing the level of the unstimulated control.

## C=CC(=O)N1CCC(F)(CNc2ncnc(N)c2-c2ccc(Oc3ccccc3)cc2)CC1 [Compound 128, 1-(4-(((6-amino-5-(4-phenoxyphenyl)pyrimidin-4-yl)amino)methyl)-4-fluoropiperidin-1-yl)prop-2-en-1-one]
Serum tryptase
  reduction in serum tryptase levels: effective in reducing serum tryptase levels
Human mast cells
  chemoattractant activity of mast cells (chemotaxis, fold change over non-activated control): inhibited
Mast cells
  time to restoration of degranulation after inhibition: ≤ 24 h
BTK
  MRGPRX2-induced BTK phosphorylation: inhibited

Source: patent US20250360130A1, “METHODS OF TREATING INDOLENT SYSTEMIC MASTOCYTOSIS” (Telios Pharma Inc., priority 2024, published 2025)
